Assay results taken from paper PMC12396409, “Screening and hit evaluation of a microbial metabolite library against the pathogenic Plasmodium falciparum and Toxoplasma gondii parasites” (International Journal for Parasitology: Drugs and Drug …, 2025).
Read-outs that look alike come from different tables or passages of the source.

Key:
[1] = test system: T. gondii RH strain (RH-Tub-eYFP) tachyzoites; assay: microbe, parasite or virus in culture; assay type: cell-based, Toxoplasma gondii; details: 72 h, 72 h; for percent parasite growth at 2 µg/mL: Toxoplasma gondii
[2] = test system: P. falciparum 3D7 parasites; assay: P. falciparum growth inhibition assay, 2-cycle (120 h treatment), delayed-death screen and dose-response; assay type: cell-based, Plasmodium falciparum; details: for 3) Fold change (72 h/120 h): growth at 72 h / growth at 120 h
[3] = test system: P. falciparum 3D7 parasites; assay: P. falciparum growth inhibition assay, 1-cycle (72 h treatment), SYBR DNA staining (library screen at 2 μg/mL and dose-response); assay type: cell-based, Plasmodium falciparum
[4] = T. gondii, screen at 2 μg/mL, replicate 1, read-out: Tg_72h_%Growth_Rep1
[5] = T. gondii, screen at 2 μg/mL, replicate 2, read-out: Tg_72h_%Growth_Rep2
[6] = Plasmodium falciparum, 3D7, P. falciparum, 120 h, screen at 2 μg/mL, replicate 1, read-out: Pf_120h_%Growth_Rep1
[7] = Plasmodium falciparum, 3D7, P. falciparum, 120 h, screen at 2 μg/mL, replicate 2, read-out: Pf_120h_%Growth_Rep2
[8] = Plasmodium falciparum, 3D7, P. falciparum, 72 h, screen at 2 μg/mL, replicate 1, read-out: Pf_72h_%Growth_Rep1
[9] = Plasmodium falciparum, 3D7, P. falciparum, 72 h, screen at 2 μg/mL, replicate 2, read-out: Pf_72h_%Growth_Rep2
[10] = library screen at 2 μg/mL, % growth, replicate 1
[11] = library screen at 2 μg/mL, % growth, replicate 2
[12] = library screen at 2 μg/mL, 120 h, % growth, replicate 1
[13] = library screen at 2 μg/mL, 120 h, % growth, replicate 2
[14] = library screen at 2 μg/mL, 72 h, % growth, replicate 1
[15] = library screen at 2 μg/mL, 72 h, % growth, replicate 2

`O=c1c(-c2ccc(O)cc2)coc2cc(O)ccc12` [Daidzein] showed a percent parasite growth at 2 µg/mL [1, 4] of 125%, a percent parasite growth at 2 µg/mL [1, 5] of 97% and an activity at 2 µg/mL [2, 6] of 103%. For the same compound, the activity at 2 µg/mL [2, 7] was 95.5%, the activity at 2 µg/mL [3, 8] was 83.8% and the activity at 2 µg/mL [3, 9] was 88.8%.
`Cc1c2c(c(O)c3c(O)cccc13)C(=O)O[C@@H]2[C@H]1[C@H](N(C)C)C(O)=C(C(N)=O)C(=O)[C@@H]1O` [Apooxytetracycline, beta-] was tested, and the Tg_72h_%Growth_Rep1 [1, 10] was 117.82%, the Tg_72h_%Growth_Rep2 [1, 11] was 102.07% and the Pf_120h_%Growth_Rep1 [2, 12] was 69.86%. For the same compound, the Pf_120h_%Growth_Rep2 [2, 13] was 97.44%, the Pf_72h_%Growth_Rep1 [3, 14] was 86.47% and the Pf_72h_%Growth_Rep2 [3, 15] was 89.55%.
In the case of `CCCN1C[C@H](C)[C@@H](O)[C@](C)(O)[C@@H](CC)OC(=O)[C@H](C)[C@@H](O[C@H]2C[C@@](C)(OC)[C@@H](O)[C@H](C)O2)[C@H](C)[C@@H](O[C@@H]2O[C@H](C)C[C@H](N(C)C)[C@H]2O)[C@](C)(O)C[C@H]1C` [Gamithromycin, reference compound], the Tg_72h_%Growth_Rep1 [1, 10] was 33.80%, the Tg_72h_%Growth_Rep2 [1, 11] was 38.81% and the “2) Growth (%) at 120 h” value ([2]; P. falciparum, 2 μg/mL, 120 h) was 15.46%. The “3) Fold change (72 h/120 h)” value ([2]; P. falciparum, 2 μg/mL) was 3.8, the Pf_120h_%Growth_Rep1 [2, 12] was 12.20% and the Pf_120h_%Growth_Rep2 [2, 13] was 18.72%. For the same compound, the “1) Growth (%) at 72 h” value ([3]; P. falciparum, 2 μg/mL, 72 h) was 58.53%, the Pf_72h_%Growth_Rep1 [3, 14] was 42.98% and the Pf_72h_%Growth_Rep2 [3, 15] was 74.08%.
`C[C@H]1O[C@@H]2CC(=O)O[C@@H]2C2=C1C(=O)c1c(O)cc3c(c1C2=O)[C@H]1C[C@@H](N(C)C)[C@H](O)[C@]3(C)O1` [Sch 38519] was tested, and the Tg_72h_%Growth_Rep1 ([1]; T. gondii, parasite screen 2 μg/mL, % growth, replicate 1) was 50.53%, the Tg_72h_%Growth_Rep2 ([1]; T. gondii, parasite screen 2 μg/mL, % growth, replicate 2) was 29.49% and the Pf_120h_%Growth_Rep1 ([2]; P. falciparum, 120 h, parasite screen 2 μg/mL, % growth, replicate 1) was 51.02%. The Pf_120h_%Growth_Rep2 ([2]; P. falciparum, 120 h, parasite screen 2 μg/mL, % growth, replicate 2) was 51.53%, the Pf_72h_%Growth_Rep1 ([3]; P. falciparum, 72 h, parasite screen 2 μg/mL, % growth, replicate 1) was 54.64% and the Pf_72h_%Growth_Rep2 ([3]; P. falciparum, 72 h, parasite screen 2 μg/mL, % growth, replicate 2) was 23.72%.
`CC[C@H]1OC(=O)C[C@@H](O)[C@H](C)[C@@H](O[C@@H]2O[C@H](C)[C@@H](O[C@H]3C[C@@](C)(O)[C@@H](O)[C@H](C)O3)[C@H](N(C)C)[C@H]2O)[C@@H](CC=O)C[C@@H](C)C(=O)/C=C/C(C)=C/[C@@H]1CO[C@@H]1O[C@H](C)[C@@H](O)[C@@H](OC)[C@H]1OC` [Tylosin, reference compound] was tested, and the percent parasite growth at 2 µg/mL [1, 4] was 29.4%, the percent parasite growth at 2 µg/mL [1, 5] was 23.4% and the “3) Fold change (72 h/120 h)” value ([2]; P. falciparum, 2 μg/mL) was 2.3. The activity at 2 µg/mL ([2]; Plasmodium falciparum, 3D7; P. falciparum, 2 μg/mL, 120 h; read-out: 2) Growth (%) at 120 h) was 17.3%, the activity at 2 µg/mL [2, 6] was 31.5% and the activity at 2 µg/mL [2, 7] was 3.04%. It also gave an activity at 2 µg/mL ([3]; Plasmodium falciparum, 3D7; P. falciparum, 2 μg/mL, 72 h; read-out: 1) Growth (%) at 72 h) of 39.2%, an activity at 2 µg/mL [3, 8] of 39.8% and an activity at 2 µg/mL [3, 9] of 38.7%.
`CC[C@@H]1CCN[C@H](C(=O)N[C@@H]([C@H]2O[C@H](SC)[C@H](O)[C@@H](O)[C@H]2O)[C@H](C)Cl)C1` [BIA-P1459] showed a Tg_72h_%Growth_Rep1 ([1]; T. gondii, parasite screen at 2 μg/mL, % growth, replicate 1) of 8.37%, a Tg_72h_%Growth_Rep2 ([1]; T. gondii, parasite screen at 2 μg/mL, % growth, replicate 2) of 23.25% and a Pf_120h_%Growth_Rep1 ([2]; P. falciparum 3D7, 120 h, parasite screen at 2 μg/mL, % growth, replicate 1) of 9.76%. It also gave a Pf_120h_%Growth_Rep2 ([2]; P. falciparum 3D7, 120 h, parasite screen at 2 μg/mL, % growth, replicate 2) of 125.61%, a Pf_72h_%Growth_Rep1 ([3]; P. falciparum 3D7, 72 h, parasite screen at 2 μg/mL, % growth, replicate 1) of 26.60% and a Pf_72h_%Growth_Rep2 ([3]; P. falciparum 3D7, 72 h, parasite screen at 2 μg/mL, % growth, replicate 2) of 41.09%.
Albofungin gave a Tg_72h_%Growth_Rep1 [1, 10] of -0.16%, a Tg_72h_%Growth_Rep2 [1, 11] of 2.30% and a Pf_120h_%Growth_Rep1 [2, 12] of -0.91%. It also gave a Pf_120h_%Growth_Rep2 [2, 13] of 21.65%, a Pf_72h_%Growth_Rep1 [3, 14] of 6.93% and a Pf_72h_%Growth_Rep2 [3, 15] of 9.97%.
`CO/C1=C\C(C)=C\[C@@H](C)[C@@H](O)[C@@H](C)C/C(C)=C/C=C/[C@H](OC)[C@@H]([C@@H](C)[C@@H](O)[C@H](C)[C@@]2(O)C[C@@H](OC(=O)/C=C/C(=O)NC3=C(O)CCC3=O)[C@H](C)[C@@H](C(C)C)O2)OC1=O` [Bafilomycin B1] gave a Tg_72h_%Growth_Rep1 [1, 10] of -0.95%, a Tg_72h_%Growth_Rep2 [1, 11] of 0.68% and a Pf_120h_%Growth_Rep1 [2, 12] of 5.87%. It also gave a Pf_120h_%Growth_Rep2 [2, 13] of 11.47%, a Pf_72h_%Growth_Rep1 [3, 14] of 2.46% and a Pf_72h_%Growth_Rep2 [3, 15] of 1.87%.
Work on `C/C=C/[C@H]1O[C@@](O)([C@@H](C)[C@H](O)[C@H](C)[C@H]2OC(=O)/C(OC)=C/C(C)=C/[C@@H](C)[C@@H](O)[C@@H](C)[C@@H](O)[C@H](C)C/C(C)=C/C=C/[C@@H]2OC)C[C@@H](O[C@H]2C[C@@H](O)[C@H](OC(N)=O)[C@@H](C)O2)[C@@H]1C` [Concanamycin B] yielded a Tg_72h_%Growth_Rep1 ([1]; T. gondii, screen at 2 μg/mL, replicate 1) of -1.62%, a Tg_72h_%Growth_Rep2 ([1]; T. gondii, screen at 2 μg/mL, replicate 2) of 0.33% and a Pf_120h_%Growth_Rep1 ([2]; P. falciparum, 120 h, screen at 2 μg/mL, replicate 1) of -3.38%. The Pf_120h_%Growth_Rep2 ([2]; P. falciparum, 120 h, screen at 2 μg/mL, replicate 2) was 8.50%, the Pf_72h_%Growth_Rep1 ([3]; P. falciparum, 72 h, screen at 2 μg/mL, replicate 1) was 2.18% and the Pf_72h_%Growth_Rep2 ([3]; P. falciparum, 72 h, screen at 2 μg/mL, replicate 2) was 1.46%.
